According to publication PMC12396409, “Screening and hit evaluation of a microbial metabolite library against the pathogenic Plasmodium falciparum and Toxoplasma gondii parasites” (International Journal for Parasitology: Drugs and Drug …, 2025):
Like-named read-outs stand apart in the source and are kept apart here.

Columns and labels:
[1] = tested on: P. falciparum 3D7 parasites; assay: P. falciparum growth inhibition assay, 2-cycle (120 h treatment), delayed-death screen and dose-response; type: cell-based, Plasmodium falciparum
[2] = tested on: T. gondii RH strain (RH-Tub-eYFP) tachyzoites; assay: microbe, parasite or virus in culture; type: cell-based, Toxoplasma gondii; details: 72 h; for percent parasite growth at 2 µg/mL: Toxoplasma gondii
[3] = tested on: P. falciparum 3D7 parasites; assay: P. falciparum growth inhibition assay, 1-cycle (72 h treatment), SYBR DNA staining (library screen at 2 μg/mL and dose-response); type: cell-based, Plasmodium falciparum
[4] = library screen at 2 μg/mL, 120 h, % growth, replicate 1
[5] = library screen at 2 μg/mL, 120 h, % growth, replicate 2
[6] = library screen at 2 μg/mL, % growth, replicate 1
[7] = library screen at 2 μg/mL, % growth, replicate 2
[8] = library screen at 2 μg/mL, 72 h, % growth, replicate 1
[9] = library screen at 2 μg/mL, 72 h, % growth, replicate 2
[10] = T. gondii, 2 μg/mL, values are growth (% of control)
[11] = P. falciparum 3D7, 120 h, library screen at 2 μg/mL, % growth, replicate 1
[12] = T. gondii RH, library screen at 2 μg/mL, % growth, replicate 1
[13] = T. gondii RH, library screen at 2 μg/mL, % growth, replicate 2
[14] = P. falciparum 3D7, 72 h, library screen at 2 μg/mL, % growth, replicate 1
[15] = P. falciparum 3D7, 72 h, library screen at 2 μg/mL, % growth, replicate 2
[16] = P. falciparum 3D7, 120 h, parasite screen at 2 μg/mL, % growth, replicate 1
[17] = P. falciparum 3D7, 120 h, parasite screen at 2 μg/mL, % growth, replicate 2
[18] = T. gondii, parasite screen at 2 μg/mL, % growth, replicate 1
[19] = T. gondii, parasite screen at 2 μg/mL, % growth, replicate 2
[20] = P. falciparum 3D7, 72 h, parasite screen at 2 μg/mL, % growth, replicate 1
[21] = P. falciparum 3D7, 72 h, parasite screen at 2 μg/mL, % growth, replicate 2
[22] = P. falciparum, 120 h, screen at 2 μg/mL, replicate 1
[23] = P. falciparum, 120 h, screen at 2 μg/mL, replicate 2
[24] = T. gondii, screen at 2 μg/mL, replicate 1
[25] = T. gondii, screen at 2 μg/mL, replicate 2
[26] = P. falciparum, 72 h, screen at 2 μg/mL, replicate 1
[27] = P. falciparum, 72 h, screen at 2 μg/mL, replicate 2

CC1=C[C@H]2O[C@@H]3[C@H](O)C[C@](C)([C@@]2(CO)[C@H](O)C1=O)[C@]31CO1 [Deoxynivalenol]
Pf_120h_%Growth_Rep1 [1, 4]: 19.31% | Pf_120h_%Growth_Rep2 [1, 5]: 5.93% | Tg_72h_%Growth_Rep1 [2, 6]: -0.04% | Tg_72h_%Growth_Rep2 [2, 7]: 0.56% | Pf_72h_%Growth_Rep1 [3, 8]: -0.53% | Pf_72h_%Growth_Rep2 [3, 9]: -5.17%

CO[C@@H]1[C@@H](O[C@@H]2O[C@H](C)[C@@H](O[C@H]3C[C@@](C)(O)[C@@H](OC(=O)CC(C)C)[C@H](C)O3)[C@H](N(C)C)[C@H]2O)[C@@H](CC=O)C[C@@H](C)[C@@H](O)/C=C/C=C/C[C@@H](C)OC(=O)C[C@H]1OC(C)=O [Josamycin (Leucomycin A3), reference compound]
3) Fold change (72 h/120 h) [1]: 5.3 | activity at 2 µg/mL ([1]; Plasmodium falciparum, 3D7, 120 h, P. falciparum, 2 μg/mL, 120 h; read-out: 2) Growth (%) at 120 h): 10.1% | Mean ([2]; T. gondii, 2 μg/mL, mean of both replicates, growth (% of control)): 20.93 | Replicate 1 [2, 10]: 18.33 | Replicate 2 [2, 10]: 23.52 | activity at 2 µg/mL ([3]; Plasmodium falciparum, 3D7, 72 h, P. falciparum, 2 μg/mL, 72 h; read-out: 1) Growth (%) at 72 h): 53.5%

CNC1=NC(=O)C(C(C)c2c[nH]c3ccccc23)O1 (stereo not drawn) [BIA-I1040]
Pf_120h_%Growth_Rep1 [1, 11]: 17.78% | Pf_120h_%Growth_Rep2 ([1]; P. falciparum 3D7, 120 h, library screen at 2 μg/mL, % growth, replicate 2): 16.99% | Tg_72h_%Growth_Rep1 [2, 12]: 45.17% | Tg_72h_%Growth_Rep2 [2, 13]: 47.91% | Pf_72h_%Growth_Rep1 [3, 14]: 33.91% | Pf_72h_%Growth_Rep2 [3, 15]: 55.84%

NC(=O)c1cccc2nc3ccccc3nc12 [BIA-O1527]
Pf_120h_%Growth_Rep1 [1, 16]: 104.27% | Pf_120h_%Growth_Rep2 [1, 17]: 111.59% | Tg_72h_%Growth_Rep1 [2, 18]: 111.76% | Tg_72h_%Growth_Rep2 [2, 19]: 91.86% | Pf_72h_%Growth_Rep1 [3, 20]: 73.74% | Pf_72h_%Growth_Rep2 [3, 21]: 112.20%

COc1ccc2c(c1OC)C[N+]1(C)CCc3cc4c(cc3C1C2)OCO4.[I-] (stereo not drawn) [BIA-M1962]
Pf_120h_%Growth_Rep1 [1, 16]: 5.27% | Pf_120h_%Growth_Rep2 [1, 17]: 17.95% | Tg_72h_%Growth_Rep1 [2, 18]: 93.48% | Tg_72h_%Growth_Rep2 [2, 19]: 106.99% | Pf_72h_%Growth_Rep1 [3, 20]: 14.79% | Pf_72h_%Growth_Rep2 [3, 21]: 27.45%

CC(=O)C1C(C)=CC(=O)c2c1c(-c1c3c(c(O)c4c(O)cccc14)C(=O)CC(C)(O)C3C(C)=O)c1cccc(O)c1c2O (stereo not drawn) [Setomimycin]
Pf_120h_%Growth_Rep1 ([1]; P. falciparum, 120 h, parasite screen 2 μg/mL, % growth, replicate 1): 7.52% | Pf_120h_%Growth_Rep2 ([1]; P. falciparum, 120 h, parasite screen 2 μg/mL, % growth, replicate 2): 6.30% | Tg_72h_%Growth_Rep1 ([2]; T. gondii, parasite screen 2 μg/mL, % growth, replicate 1): 70.47% | Tg_72h_%Growth_Rep2 ([2]; T. gondii, parasite screen 2 μg/mL, % growth, replicate 2): 40.70% | Pf_72h_%Growth_Rep1 ([3]; P. falciparum, 72 h, parasite screen 2 μg/mL, % growth, replicate 1): 8.25% | Pf_72h_%Growth_Rep2 ([3]; P. falciparum, 72 h, parasite screen 2 μg/mL, % growth, replicate 2): 3.46%

C=C1c2cccc(O)c2C(=O)C2=C(O)[C@]3(O)C(=O)C(C(N)=O)=C(O)[C@@H](N(C)C)[C@@H]3[C@@H](O)[C@H]12 [BIA-M1467]
Pf_120h_%Growth_Rep1 [1, 16]: 96.98% | Pf_120h_%Growth_Rep2 [1, 17]: 103.99% | Tg_72h_%Growth_Rep1 [2, 18]: 118.90% | Tg_72h_%Growth_Rep2 [2, 19]: 95.35% | Pf_72h_%Growth_Rep1 [3, 20]: 83.43% | Pf_72h_%Growth_Rep2 [3, 21]: 110.33%

COC(=O)[C@]12Oc3cc(C)c(-c4c(C)cc5c(c4O)C(=O)C4=C(O)CC[C@H](O)[C@@]4(C(=O)OC)O5)c(O)c3C(=O)C1=C(O)CC[C@@H]2O [Rugulotrosin A]
activity at 2 µg/mL ([1]; Plasmodium falciparum, 3D7, 120 h, P. falciparum, 120 h, parasite screen 2 μg/mL, % growth, replicate 1, read-out: Pf_120h_%Growth_Rep1): 69.8% | activity at 2 µg/mL ([1]; Plasmodium falciparum, 3D7, 120 h, P. falciparum, 120 h, parasite screen 2 μg/mL, % growth, replicate 2, read-out: Pf_120h_%Growth_Rep2): 107% | percent parasite growth at 2 µg/mL ([2]; T. gondii, parasite screen 2 μg/mL, % growth, replicate 1, read-out: Tg_72h_%Growth_Rep1): 118% | percent parasite growth at 2 µg/mL ([2]; T. gondii, parasite screen 2 μg/mL, % growth, replicate 2, read-out: Tg_72h_%Growth_Rep2): 86.1% | activity at 2 µg/mL ([3]; Plasmodium falciparum, 3D7, 72 h, P. falciparum, 72 h, parasite screen 2 μg/mL, % growth, replicate 1, read-out: Pf_72h_%Growth_Rep1): 69.8% | activity at 2 µg/mL ([3]; Plasmodium falciparum, 3D7, 72 h, P. falciparum, 72 h, parasite screen 2 μg/mL, % growth, replicate 2, read-out: Pf_72h_%Growth_Rep2): 106%

Cc1c2c(c(O)c3c(O)cccc13)C(=O)[C@]1(O)C(O)=C(C(N)=O)C(=O)[C@H](N(C)C)[C@@H]1C2.Cl [Epianhydrotetracycline hydrochloride]
Pf_120h_%Growth_Rep1 [1, 4]: 77.42% | Pf_120h_%Growth_Rep2 [1, 5]: 113.33% | Tg_72h_%Growth_Rep1 [2, 6]: 166.02% | Tg_72h_%Growth_Rep2 [2, 7]: 109.09% | Pf_72h_%Growth_Rep1 [3, 8]: 83.48% | Pf_72h_%Growth_Rep2 [3, 9]: 108.73%

CC[C@H](C)C(=O)O[C@H]1C[C@@H](C)C=C2C=C[C@H](C)[C@H](CC[C@@H]3C[C@@H](O)CC(=O)O3)[C@H]21 [BIA-L1264]
Pf_120h_%Growth_Rep2 [1]: 93.18% | Pf_120h_%Growth_Rep1 [1, 11]: 89.66% | Tg_72h_%Growth_Rep1 [2, 12]: 3.18% | Tg_72h_%Growth_Rep2 [2, 13]: 2.54% | Pf_72h_%Growth_Rep1 [3, 14]: 70.29% | Pf_72h_%Growth_Rep2 [3, 15]: 102.36%

CCC(=O)N[C@H](COC(C)=O)[C@H](O)c1ccc([N+](=O)[O-])cc1 [Corynecin V]
Pf_120h_%Growth_Rep1 [1, 22]: 81.24% | Pf_120h_%Growth_Rep2 [1, 23]: 97.66% | Tg_72h_%Growth_Rep1 [2, 24]: 157.61% | Tg_72h_%Growth_Rep2 [2, 25]: 102.11% | Pf_72h_%Growth_Rep1 [3, 26]: 87.31% | Pf_72h_%Growth_Rep2 [3, 27]: 90.66%

C=CC(C)(C)[C@]12C[C@@H]3C(=O)Nc4ccccc4C(=O)N3[C@H]1N(C(C)=O)c1ccccc12 [Acetylaszonalenin]
Pf_120h_%Growth_Rep1 [1, 4]: 140.03% | Pf_120h_%Growth_Rep2 [1, 5]: 96.89% | Tg_72h_%Growth_Rep1 [2, 6]: 84.46% | Tg_72h_%Growth_Rep2 [2, 7]: 90.00% | Pf_72h_%Growth_Rep1 [3, 8]: 98.36% | Pf_72h_%Growth_Rep2 [3, 9]: 85.99%

N[C@H](CO)[C@H](O)c1ccc([N+](=O)[O-])cc1 [Chloramphenicol base]
Pf_120h_%Growth_Rep1 [1, 22]: 102.72% | Pf_120h_%Growth_Rep2 [1, 23]: 92.34% | Tg_72h_%Growth_Rep1 [2, 24]: 134.60% | Tg_72h_%Growth_Rep2 [2, 25]: 99.67% | Pf_72h_%Growth_Rep1 [3, 26]: 86.96% | Pf_72h_%Growth_Rep2 [3, 27]: 86.58%

Amphomycin
Pf_120h_%Growth_Rep1 [1, 4]: 117.00% | Pf_120h_%Growth_Rep2 [1, 5]: 80.15% | Tg_72h_%Growth_Rep1 [2, 6]: 94.79% | Tg_72h_%Growth_Rep2 [2, 7]: 89.38% | Pf_72h_%Growth_Rep1 [3, 8]: 83.34% | Pf_72h_%Growth_Rep2 [3, 9]: 87.67%

Cc1cc(O)cc2oc(=O)c3c(O)cc(O)cc3c12 [Alternariol]
activity at 2 µg/mL ([1]; Plasmodium falciparum, 3D7, library screen at 2 μg/mL, 120 h, % growth, replicate 1, read-out: Pf_120h_%Growth_Rep1): 171% | activity at 2 µg/mL ([1]; Plasmodium falciparum, 3D7, library screen at 2 μg/mL, 120 h, % growth, replicate 2, read-out: Pf_120h_%Growth_Rep2): 90.2% | percent parasite growth at 2 µg/mL ([2]; library screen at 2 μg/mL, % growth, replicate 1, read-out: Tg_72h_%Growth_Rep1): 37.5% | percent parasite growth at 2 µg/mL ([2]; library screen at 2 μg/mL, % growth, replicate 2, read-out: Tg_72h_%Growth_Rep2): 99.9% | activity at 2 µg/mL ([3]; Plasmodium falciparum, 3D7, library screen at 2 μg/mL, 72 h, % growth, replicate 1, read-out: Pf_72h_%Growth_Rep1): 84.6% | activity at 2 µg/mL ([3]; Plasmodium falciparum, 3D7, library screen at 2 μg/mL, 72 h, % growth, replicate 2, read-out: Pf_72h_%Growth_Rep2): 91.2%

CC(C)=CC(=O)C[C@H](C)c1ccc(C)cc1 [Turmerone]
Pf_120h_%Growth_Rep1 [1, 22]: 78.99% | Pf_120h_%Growth_Rep2 [1, 23]: 84.67% | Tg_72h_%Growth_Rep1 [2, 24]: 108.84% | Tg_72h_%Growth_Rep2 [2, 25]: 94.24% | Pf_72h_%Growth_Rep1 [3, 26]: 81.95% | Pf_72h_%Growth_Rep2 [3, 27]: 115.94%
